From patent publication US20070059242A1, “METHODS TO IDENTIFY THERAPEUTIC AGENTS” (priority 2005, published 2007) come the findings set out here.

One assay relates to E-selectin. Nature of the assay: Endothelial adhesion molecule expression ELISA, E-selectin. Particulars: for upregulation of E-selectin expression relative to vehicle control: HAAE-1, 4 h, 25 μM in the presence of LDL (100 μg/mL protein), or lipoprotein alone; for selectin (E-selectin) expression: HAAE-1, not complexed with LDL. Format: cell-based, human. As for the experimental part:
Endothelial cell surface adhesion molecule expression was measured by ELISA, using anti-human CD54 (ICAM-1), CD106 (VCAM-1) and CD62E (E-Selectin) antibodies (Leinco Technologies, Inc., St. Louis, Mo.). The ELISA method was modified from previously described procedures.
Cells were then incubated with antibodies to VCAM-1, E-selectin, or ICAM-1 diluted 1:400 in PBS containing 5% FCS at 37° C. for 30 min. Wells were washed two times with PBS, then incubated with horseradish peroxidase (HRP)-conjugated goat anti-mouse IgG (Southern Biotechnology Associates, Birmingham, Ala., USA) in PBS/5% FCS at 37° C. for 30 min. The wells were washed four times with PBS, then incubated with H2O2/3,3′,5,5′-tetramethyl-benzidine peroxidase substrate (Pierce Chemical, Rockford, Ill., USA) for 30 min in the dark. The reaction was stopped by adding 25 μl of 8 N H2SO4, and the plates read on a microplate reader, blanking on wells stained with only secondary antibody. Each assay was performed in triplicate and the data are reported as the mean±SEM as a percentage of the expression level of the vehicle. To study the effect of cholesterol ozonation product 5a concentration (5-50 μM) on E-selectin expression, the assay was performed in an identical fashion as described above, with each point being the mean±SEM of at least duplicate measurements.

The test system of a further assay is CD36. Nature of the assay: Scavenger receptor expression by flow cytometry, CD36. Format: cell-based, murine. Here is the method: Cell surface CD36 and SR-A were measured by flow cytometry using CD36 (BD Biosciences Pharmingen, San Diego, Calif.) and CD204 (Serotec, Oxford, UK) specific monoclonal antibodies. See Liao et al. (2000) Arterioscler. Thromb. Vasc. Biol. 20: 1968-75; Hu et al. (1996) Blood 87: 2020-28. Murine macrophage J774A.1 cells were serum-starved overnight in media with 0.5% BSA. Cells (1×10^6) treated with cholesterol ozonation products or cholesterol ozonation product complexed with LDL for specified times were then washed twice with PBS. After harvesting the cells by scraping, they were fixed with 6% paraformaldehyde for 20 min. Cells were then resuspended in PBS containing 2% heat-inactivated FCS, 0.05% NaN3 and appropriate primary antibody, antibody conjugate or isotype control (1:100 dilution) and incubated on ice for 30 min. Expression of either CD36 or SR-A was determined with CD36 (BD Biosciences Pharmingen, San Diego, Calif.) and CD204 (Serotec, Oxford, U.K.) specific monoclonal antibodies, respectively. After washing off the primary antibody, secondary antibodies were added, cells were washed again, then analyzed on a FACS calibur 2 (Becton Dickinson, Sparks, Md.) flow cytometer and analyzed by CellQuant software. Results were expressed as mean fluorescence intensity±standard error of the mean (SEM) of at least duplicate determinations. Significance was determined using a student two-tail t test, with (*) indicating p<0.05, and (**) indicating p<0.01 versus the control.
On the technique in general: Flow cytometry measures light scatter and fluorescence of single cells or particles in a stream.

A further assay has as its system J774A.1 macrophages. Nature of the assay: Modified Boyden chamber migration (chemotaxis) assay. The conditions noted are these: for recruitment (migration) of macrophages: 0-25 μM, 4 h. Format: cell-based, murine. Here is the method:
Chemotaxis and invasion assays were performed using a modified Boyden chamber migration assay. Zwirner et al. (1998) Eur. J. Immunol. 28: 1570-77; Wilkinson (1988) Methods Enzymol. 162: 38-50. Assays were set up on MultiScreen-MIC plates (Millipore, Billerica, Mass., USA) with polyvinylpyrrolidone-free polycarbonate membranes (5 μm pore size). Cells (murine macrophage J774A.1) were washed and resuspended in serum-free DMEM containing 0.2% BSA at 1×10^6 cells/ml. Fifty microliters of cells were added to the upper wells and 150 μl of chemoattractant in DMEM/0.2% BSA were added to the lower wells of the microchamber. Incubation time was for 4 h at 37° C. in an 8% CO2 atmosphere. After swiping cells off the upper side of the membrane, cells on the lower side were visualized by either staining and phase contrast microscopy, or fluorescence. Cells that had adhered to the membrane were stained using a DiffQuik staining kit (Dade Behring, Newark, Del.). Each experiment was performed in triplicate and the numbers of migrating cells were counted in five fields at ×200. Cells harvested with PBS-EDTA for fluorescent labeling were washed two times with PBS, then resuspended in serum-free medium containing calcein AM (5 μM). Cells were incubated for 30 min (37° C., 5% CO2) with gentle intermittent mixing. Calcein-labeled cells were washed twice, and calcein fluorescence ([…]) was measured using a SPECTRAmax™ GEMINI dual-scanning microplate spectrofluorometer. Fluorescence measurements were compared to a standard curve, generated by dilution of cells in PBS/BSA in 100 μl, dispensed into 96-well plates. Fluorescence was quantified as described above.

The mark [1] stands for this setting: J774A.1, 25 μM complexed with LDL (100 μg/ml protein), 6 h.
[2] abbreviates: cultured macrophages, in the absence of LDL.
The mark [3] stands for this setting: complexed with native LDL (100 μg/ml).

Each structure is given as a SMILES string.

As for `CC(C)CCC[C@@H](C)[C@H]1CCC2C(CC=O)C([C@@]3(C)CC[C@H](O)CC3=O)CC[C@@]21C` (stereo partly drawn) [4a, 3β-Hydroxy-5-oxo-5,6-secocholestan-6-al], the E-selectin levels in the assay on E-selectin (HAAE-1, 1.25 μM complexed with LDL) is recorded as 2 fold; in the assay on E-selectin (HAAE-1, 50 μM complexed with LDL), “about 8 fold”. The “upregulation of E-selectin expression relative to vehicle control” value in the assay on E-selectin was “greater than 4 fold”. Further, the “selectin (E-selectin) expression” value in the assay with E-selectin was “no effects”. For the same compound, the CD36 expression result in the assay with CD36 (setting [1]) is recorded as “little or no effect”; in the assay with CD36 (setting [2]), “did not increase expression”. In addition, the “recruitment (migration) of macrophages” value with J774A.1 macrophages is listed as “stimulate dose-dependent recruitment of macrophages”. For the same compound, the values for the migration of macrophages entry in the assay with J774A.1 macrophages (co-incubated with BSA) and in the assay on J774A.1 macrophages (setting [3]) were “macrophage migration still occurs” and “no significant migration”, respectively.
Regarding `CC(C)CCC[C@@H](C)[C@H]1CCC2C3C(CC[C@@]21C)[C@@]1(C)CC[C@H](O)C[C@@]1(O)[C@@H]3C=O` (stereo partly drawn) [5a, 3β-Hydroxy-5β-hydroxy-B-norcholestane-6β-carboxaldehyde], the “upregulation of E-selectin expression relative to vehicle control” value in the assay on E-selectin is reported as 1.8 fold. Moreover, the “selectin (E-selectin) expression” value with E-selectin is given as “no effects”. Moreover, the figures for the CD36 expression entry with CD36 (setting [1]) and in the assay with CD36 (setting [2]) were “little or no effect” and “did not increase expression”, respectively. Besides, the “recruitment (migration) of macrophages” value with J774A.1 macrophages is reported as “stimulate dose-dependent recruitment of macrophages”. Further, the figures for the migration of macrophages result with J774A.1 macrophages (co-incubated with BSA) and in the assay with J774A.1 macrophages (setting [3]) were “macrophage migration still occurs” and “no significant migration”, respectively.
